# Results reported in article PMC7126984 (International Journal of Antimicrobial Agents, 2008).
# Experiments:
# [1] = system: enterovirus 71 (EV71); test: Plaque reduction assay, EV71 in HL-CZ cells
# [2] = system: 2′,5′-oligoadenylate synthetase (OAS) mRNA; test: Real-time RT-PCR of OAS mRNA in HL-CZ cells; type: cell-based, human; conditions: 1 μg/mL, normalised to GAPDH, vs untreated cells
# [3] = system: IFNα expression; test: ELISA for detection of IFNα expression in TE-671 cells; type: cell-based, human; conditions: 48 h incubation
# [4] = MTT cytotoxicity test in HL-CZ cells; conditions: human, HL-CZ promonocyte cells
# [5] = system: enterovirus 71 (EV71); test: Plaque reduction assay, EV71 in TE-671 cells; conditions: for IC50: Enterovirus A
# [6] = system: nitric oxide (NO) production; test: NO production by DAF-2 DA fluorescence in HL-CZ cells; type: cell-based, human; conditions: compared with the control and shikonin
# [7] = system: Japanese encephalitis virus (JEV) strain T1P1; test: Plaque reduction assay, JEV in HL-CZ cells; conditions: for TI (ratio of CC50 to IC50): JEV, HL-CZ cells; for IC50: Japanese encephalitis virus, 48 h
# [8] = system: human protein kinase R (PKR) mRNA; test: Real-time RT-PCR of PKR mRNA in HL-CZ cells; type: cell-based; conditions: 1 μg/mL, normalised to GAPDH, vs untreated cells
# [9] = system: Japanese encephalitis virus (JEV) strain T1P1; test: Plaque reduction assay, JEV in TE-671 cells; conditions: for TI (ratio of CC50 to IC50): JEV, TE-671 cells; for IC50: Japanese encephalitis virus; for inhibition of JEV replication in cell culture assay: dose-dependent plaque reduction assay
# [10] = system: interferon-stimulated response element (ISRE) promoter; test: Dual-luciferase cis-reporter assay pISRE-Luc in HL-CZ cells; type: cell-based, human; conditions: 1 μg/mL, 4 h, normalised by Renilla luciferase, vs untreated cells
# [11] = MTT cytotoxicity test in TE-671 cells; conditions: human, TE-671 medulloblastoma cells
# [12] = system: rhinovirus; conditions: cited from earlier work
# [13] = system: gamma-activated sequence (GAS) promoter; test: Dual-luciferase cis-reporter assay pGAS-Luc in HL-CZ cells; type: cell-based, human; conditions: 1 μg/mL, 4 h, normalised by Renilla luciferase, vs untreated cells
# [14] = system: TE-671 medulloblastoma cells; test: MTT cytotoxicity test in TE-671 cells; conditions: TE-671 cells, 48 h treatment, MTT assay
# [15] = 1 μg/mL, TE-671 and HL-CZ cells, 12, 24 and 48 h
SMILES,increase of OAS mRNA [2] [fold],"level of IFNα expression, dose dependence [3]",CC50 at 48 h [4] [µg/mL],NO production (DAF signal) [6],TI (ratio of CC50 to IC50) [7],IC50 [7] [µg/mL],increase of PKR mRNA [8] [fold],TI (ratio of CC50 to IC50) [9],"IC50 ([9]; TE-671, 48 h) [µg/mL]",inhibition of JEV replication in cell culture assay [9],increase of promoter activity of pISRE-Luc [10],CC50 at 48 h [11] [µg/mL],increase of promoter activity of pGAS-Luc [13] [fold],also measured
"O=C1c2cccc(O)c2C(=O)c2c(O)cc(CO)cc21 [Aloe-emodin, 1,8-dihydroxy-3-hydroxymethyl-anthraquinone]",8.6,dose-dependent increase,2880,greater DAF signal,5762,0.5 ± 0.02,1294.4,1743,1.51 ± 0.05,dose-dependent inhibition,ca. 2.14 fold,2630,~2.03,"TI (ratio of CC50 to IC50) ([1]; EV71, HL-CZ cells): 5540; IC50 ([1]; Enterovirus A, EV71, 48 h): 0.52 ± 0.03 µg/mL; increase in IFNα expression [3]: 2.5 fold; time-dependent inhibition of EV71 replication [5, 15]: significantly inhibited; TI (ratio of CC50 to IC50) ([5]; EV71, TE-671 cells): 18 800; IC50 ([5]; EV71, TE-671, 48 h): 0.14 ± 0.04 µg/mL; IC50 ([5]; EV71, TE-671, read-out: IC50 for EV71): 0.14 to 0.52 µg/mL; therapeutic index (TI) for anti-EV71 activity ([5]; over TE-671 and HL-CZ cells): > 5000; time-dependent inhibition of JEV replication [9, 15]: significantly inhibited; IC50 ([9]; TE-671, read-out: IC50 for JEV): 0.5 to 1.51 µg/mL; therapeutic index (TI) for anti-JEV activity ([9]; over TE-671 and HL-CZ cells): > 1500; antiviral effect on the replication of rhinovirus [12]: no antiviral effect"
"COC(=O)C1=CCCN(C)C1 [Arecoline, arecoline]",,dose-dependent increase,> 3000,greater DAF signal,>285.7,10.5 ± 0.3,,>92.3,32.5 ± 0.4,dose-dependent inhibition,,> 3000,1.8,
"O.Oc1cc(O)c2c(c1)O[C@H](c1ccc(O)c(O)c1)[C@@H](O)C2 [Catechin, catechin]",,,,,,,,,,,,,,CC50 [14]: >3000 µg/mL
"COc1ccc([C@@H]2CC(=O)c3c(O)cc(O)cc3O2)cc1O [Hesperetin, hesperetin]",,,,,,,,159,3.6 ± 0.5,,,574,,
"CC(C)=CC[C@@H](O)C1=CC(=O)c2c(O)ccc(O)c2C1=O [Shikonin, shikonin]",5,dose-dependent increase,> 3000,,>2500,1.2 ± 0.2,1087,835.2,2.1 ± 0.5,dose-dependent inhibition,ca. 1.2 fold,1750,,
